58 molecules from patent US20210198277A1, “AMINE-SUBSTITUTED ARYL OR HETEROARYL COMPOUNDS” (Epizyme, Inc., priority 2016, published 2021) can be followed below.

Molecules are shown by their SMILES.

This assay concerns the target T1, EHMT1 (Homo sapiens, UniProt Q9H9B1).
T1 sequence (Q9H9B1 1-1298): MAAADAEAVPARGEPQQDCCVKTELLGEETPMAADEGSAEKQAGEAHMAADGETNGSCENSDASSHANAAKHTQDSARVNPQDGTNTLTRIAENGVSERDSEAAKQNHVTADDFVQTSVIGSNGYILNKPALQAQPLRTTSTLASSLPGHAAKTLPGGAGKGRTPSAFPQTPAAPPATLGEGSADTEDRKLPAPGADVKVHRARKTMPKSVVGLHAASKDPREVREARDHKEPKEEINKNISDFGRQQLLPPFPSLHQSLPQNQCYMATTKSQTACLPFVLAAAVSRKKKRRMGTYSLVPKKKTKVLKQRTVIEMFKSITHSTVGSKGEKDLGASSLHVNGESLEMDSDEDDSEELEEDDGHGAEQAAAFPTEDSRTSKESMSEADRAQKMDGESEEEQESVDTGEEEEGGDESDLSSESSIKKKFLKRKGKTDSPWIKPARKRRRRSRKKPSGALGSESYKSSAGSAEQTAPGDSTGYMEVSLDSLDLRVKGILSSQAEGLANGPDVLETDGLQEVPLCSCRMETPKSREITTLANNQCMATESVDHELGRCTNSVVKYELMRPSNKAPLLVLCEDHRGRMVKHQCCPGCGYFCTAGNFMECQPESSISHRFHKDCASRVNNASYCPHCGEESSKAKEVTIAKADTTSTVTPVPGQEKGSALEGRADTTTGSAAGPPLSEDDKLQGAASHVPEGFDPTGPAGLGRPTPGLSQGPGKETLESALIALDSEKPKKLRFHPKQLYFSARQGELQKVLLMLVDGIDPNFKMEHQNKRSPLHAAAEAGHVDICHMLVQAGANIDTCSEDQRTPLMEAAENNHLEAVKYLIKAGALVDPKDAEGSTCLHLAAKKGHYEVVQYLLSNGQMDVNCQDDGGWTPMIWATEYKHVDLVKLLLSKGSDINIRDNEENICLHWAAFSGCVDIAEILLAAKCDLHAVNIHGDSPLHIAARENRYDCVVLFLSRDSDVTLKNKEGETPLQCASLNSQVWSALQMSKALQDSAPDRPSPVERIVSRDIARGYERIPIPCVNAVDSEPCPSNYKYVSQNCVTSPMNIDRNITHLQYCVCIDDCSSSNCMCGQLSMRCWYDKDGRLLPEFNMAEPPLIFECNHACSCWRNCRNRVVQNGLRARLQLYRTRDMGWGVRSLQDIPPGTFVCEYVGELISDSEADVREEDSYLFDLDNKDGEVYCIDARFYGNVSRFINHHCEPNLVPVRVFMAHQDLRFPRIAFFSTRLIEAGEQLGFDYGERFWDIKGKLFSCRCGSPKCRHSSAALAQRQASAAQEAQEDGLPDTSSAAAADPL
In words: EHMT1 enzyme assay on peptide substrate (EHMT1 PEP). The assay is classed as biochemical. As to conditions: Table VI; read-out: EHMT1 PEP IC50.
By IC50 is commonly meant the concentration at which inhibition is half-maximal. In the case of `CCc1nc(NC2CCNCC2)ncc1OCC1CN(C(C)C)C1` [Compound 631], the IC50 is greater than 10000 nM.
On to `CNCCN(C)Cc1cc(Nc2nc(C)cc(NC)n2)ccc1OC` [Compound 680], for which the IC50 fell in the range of 1000 to 10000 nM.
On to `CC(C)N1CC[C@@H](COc2cnc(N(C)C3CCNCC3)nc2)C1` [Compound 637], for which the half-inhibitory concentration (IC50) is greater than 10000 nM.
For the molecule `CCN1CC[C@@H](COc2cc3nc(C)nc(C4CCN(C)CC4)c3cc2OC)C1` [Compound 673], the IC50 is 100 to 1000 nM.
With `COc1cc(N(C)C2CCNCC2)ncc1OCC1CCNC1` (stereo not shown) [Compound 1041], the half-inhibitory concentration (IC50) is 100 to 1000 nM.
Take `CNc1cc(C)nc(Nc2cnc(OC)c(OC[C@@H]3CCNC3)c2)n1` [Compound 641]: the 50% inhibitory concentration (IC50) was less than 100 nM.
The result for `CNc1ccnc(Nc2ccc(OC)c(OCC[C@@H]3CCCN3)c2)n1` [Compound 1021] reads 100 to 1000 nM.
With `COc1cc(N(C)C2CCNCC2)ncc1OCC1CCN(C)C1` (stereo not shown) [Compound 634], the half-inhibitory concentration (IC50) is 100 to 1000 nM.
With `COc1nc(NC2CCNCC2)ncc1OCC1CCN(C)C1` (stereo not shown) [Compound 605], the concentration for half-maximal inhibition (IC50) is greater than 10000 nM.
Regarding `CNCC(C)NCc1cc(Nc2nc(C)cc(NC)n2)ccc1OC` (stereo not shown) [Compound 1037], the concentration for half-maximal inhibition (IC50) lay within 100 to 1000 nM.
On to `CCN1CC[C@@H](COc2cc3nc(C)cc(C4CCN(C(C)C)CC4)c3cc2OC)C1` [Compound 663], for which the half-maximal inhibitory concentration (IC50) was less than 100 nM.
Take `CNc1cc(C)nc(Nc2cc(OCCCN3CCCC3)n3cnnc3c2)n1` [Compound 628]: the IC50 was greater than 10000 nM.
`COc1cnc(Nc2ccc3[nH]nnc3c2)cc1OCCCN1CCCC1` [Compound 686]: the IC50 is greater than 10000 nM.
The result for `CNCCNCc1cc(Nc2nccc(NC)n2)ccc1OC` [Compound 1034] reads 100 to 1000 nM.
For the molecule `CNc1cc(C)nc(Nc2ccc(OC)c(CNCCN3CCCC3)c2)n1` [Compound 644, 2-N-[4-methoxy-3-([[2-(pyrrolidin-1-yl)ethyl]amino]methyl)phenyl]-4-N,6-dimethylpyrimidine-2,4-diamine], the concentration for half-maximal inhibition (IC50) is less than 100 nM.
Take `CCN1CC(N(C)Cc2cc(Nc3nc(C)cc(NC)n3)ccc2OC)C1` [Compound 650]: the IC50 is greater than 10000 nM.
Consider `CNc1cc(C)nc(Nc2ccc(OC)c(CN(C)CCN3CCCC3)c2)n1` [Compound 645], for which the half-maximal inhibitory concentration (IC50) fell in the range of 1000 to 10000 nM.
With `CCN1CC([C@H](C)Oc2cc(Nc3nc(C)cc(NC)n3)ccc2OC)C1` [Compound 649], the concentration for half-maximal inhibition (IC50) is 100 to 1000 nM.
The figure for `COc1cc2c(C3CCOCC3)cc(C)nc2cc1OCCCN1CCCC1` [Compound 668] is 100 to 1000 nM; for `CCN1CC[C@@H](COc2cc(Nc3nc(C)cc(NCC4CCOCC4)n3)ccc2OC)C1` [Compound 667] it is less than 100 nM.
The figure for `CCN1CC([C@@H](C)Oc2cc(Nc3nc(C)cc(NC)n3)ccc2OC)C1` [Compound 687] is 1000 to 10000 nM; for `CCN1CCC(N(C)Cc2cc(Nc3nc(C)cc(NC)n3)ccc2OC)C1` (stereo not shown) [Compound 651] it is 1000 to 10000 nM.
For the molecule `CCN1CC(COc2cc(Nc3nc(C)cc4[nH]ncc34)ncc2OC)C1` [Compound 607], the IC50 is less than 100 nM.
As for `COCCN1CCC(c2cc(C)nc3cc(OCCCN4CCCC4)c(OC)cc23)CC1` [Compound 682], the half-inhibitory concentration (IC50) was less than 100 nM.
Turning to `COc1cc2c(C)nc(N3CCNCC3)nc2cc1OCCCN1CCCC1` [Compound 739], the concentration for half-maximal inhibition (IC50) was greater than 10000 nM.
`CNc1cc(C)nc(Nc2cnc(OC)c(O)c2)n1` [Compound 676]: the half-inhibitory concentration (IC50) is greater than 10000 nM.
Consider `CCc1cc(NC)nc(Nc2ccc(OC)c(OC[C@@H]3CCN(CC)C3)c2)n1` [Compound 671], for which the IC50 was less than 100 nM.
Consider `COc1cnc(NC(=O)/C=C/CN(C)C)cc1OCCCN1CCCC1` [Compound 640], for which the half-maximal inhibitory concentration (IC50) was greater than 10000 nM.
For the molecule `COc1cc2c(C3CCCN(C)C3)nc(C)nc2cc1OCCCN1CCCC1` (stereo not shown) [Compound 743], the concentration for half-maximal inhibition (IC50) was in the range of 1000 to 10000 nM.
For `COc1cc(Nc2ccc3[nH]ncc3c2)ncc1OCCCN1CCCC1` [Compound 643], the IC50 was greater than 10000 nM.
With `CCc1nc(NC2CCNCC2)ncc1OCC1CCN(C)C1` (stereo not shown) [Compound 630], the 50% inhibitory concentration (IC50) is greater than 10000 nM.
In the case of `CNc1ccnc(Nc2ccc(OC)c(OCC[C@H]3CCCN3)c2)n1` [Compound 1022], the half-maximal inhibitory concentration (IC50) lay in the range of 100 to 1000 nM.
The result for `COc1cc2c(C)cc(N3CCNCC3)nc2cc1OCCCN1CCCC1` [Compound 738] reads 100 to 1000 nM; that for `CCN1CC[C@@H](COc2cc3nc(C)cc(C4CCN(C)CC4)c3cc2OC)C1` [Compound 662], less than 100 nM.
Regarding `CNc1cc(C)nc(Nc2ccc(OC)c(CNCCN3CC[C@@H](F)C3)c2)n1` [Compound 1030], the IC50 is less than 100 nM.
Regarding `CNc1cc(C)nc(Nc2ccc(OC)c(OC[C@@H]3CCN(C(C)C)C3)c2)n1` [Compound 1040], the concentration for half-maximal inhibition (IC50) lay within 100 to 1000 nM.
In the case of `CNc1nc(C2CCCN(C)C2)c2cc(OC)c(OCCCN3CCCC3)cc2n1` (stereo not shown) [Compound 746], the half-maximal inhibitory concentration (IC50) lay in the range of 100 to 1000 nM.
As to `COc1cnc(Nc2cccc3nncn23)nc1OCCCN1CCCC1` [Compound 656], the IC50 was greater than 10000 nM.
Turning to `CN1CCC(COc2cnc(N(C)C3CCNCC3)nc2)C1` (stereo not shown) [Compound 633], the IC50 was greater than 10000 nM.
The figure for `CCN1CC[C@@H](COc2cc(Nc3nc(NC)cc(C(C)C)n3)ccc2OC)C1` [Compound 672] is less than 100 nM.
The figure for `COc1cnc(Nc2cccn3cncc23)cc1OCCCN1CCCC1` [Compound 638] is greater than 10000 nM; for `COc1cc2c(C3CCN(C)CC3)cc(-c3cn[nH]c3)nc2cc1OCCCN1CCCC1` [Compound 677] it is less than 100 nM; for `CNCCNCc1cc(Nc2nccc(NC)n2)cnc1OC` [Compound 1035] it is 100 to 1000 nM.
Turning to `COc1cc2c(C3CCN(C)C3)nc(C)nc2cc1OCCCN1CCCC1` (stereo not shown) [Compound 745], the half-inhibitory concentration (IC50) was 100 to 1000 nM.
With `CNCCNC(C)c1cc(Nc2nc(C)cc(NC)n2)ccc1OC` (stereo not shown) [Compound 1036], the half-maximal inhibitory concentration (IC50) lay in the range of 100 to 1000 nM.
The figure for `CNc1cc(C)c2cc(OC)c(OC[C@H](O)CN3CCC3)cc2n1` [Compound 1028] is less than 100 nM; for `CNc1cc(C)c2cc(OC)c(OCCCN3CCCC3)cc2n1` [Compound 736] it is less than 100 nM.
Take `CNc1nc(C2CCN(CCOC)CC2)c2cc(OC)c(OCCCN3CCCC3)cc2n1` [Compound 740]: the 50% inhibitory concentration (IC50) is less than 100 nM.
The result for `COc1cc2c(C3CCN(C)CC3)nc(-c3cn[nH]c3)nc2cc1OCCCN1CCCC1` [Compound 681] reads 100 to 1000 nM; that for `CNc1ccnc(Nc2ccc(OC)c(CNCCN3CCCC3)c2)n1` [Compound 1032], less than 100 nM.
As to `COc1cc2c(C3CCN(C)CC3)cc(C)nc2cc1OCCCN1CC[C@@H](F)C1` [Compound 742], the IC50 was less than 100 nM.
As for `COc1cc(N(C)C2CCNCC2)ncc1OCC1CCN(C)C1` (stereo not shown) [Compound 635], the half-inhibitory concentration (IC50) fell in the range of 1000 to 10000 nM.
Regarding `CCN1CC(COc2cc3nc(C)cc(C4CCN(C)CC4)c3cc2OC)C1` [Compound 660], the IC50 was less than 100 nM.
Take `COc1cc(NC2CCNCC2)ncc1OCC1CCNC1` (stereo not shown) [Compound 629]: the IC50 was less than 100 nM.
`COc1cc2c(C3CCN(C(C)C)CC3)nc(C)nc2cc1OCCCN1CCCC1` [Compound 659]: the IC50 was 100 to 1000 nM.
The result for `COc1cnc(Nc2cccc3[nH]ncc23)nc1OCCCN1CCCC1` [Compound 655] reads greater than 10000 nM; that for `CCN1CC(COc2cc3nc(C)nc(C4CCN(C(C)C)CC4)c3cc2OC)C1` [Compound 665], 1000 to 10000 nM.
With `COc1cc(N(C)C2CCN(C)CC2)ncc1OCC1CCNC1` (stereo not shown) [Compound 1042], the IC50 was 1000 to 10000 nM.
